According to patent US7803930B2, “Antisense modulation of apolipoprotein B-expression” (Isis Pharmaceuticals, Inc., priority 2002, dated 2010):
In the oligonucleotide strings, read from the 5' end, every base follows the letter of its sugar. An asterisk marks phosphorothioate; unmarked linkages are phosphodiester. Other units and linkages are bracketed, terminal groups are in braces. A string of capitals states the bases alone. e = 2'-O-(2-methoxyethyl) (MOE); [5mC] = 5-methylcytosine; d = 2'-deoxy (DNA)

How the values were obtained:
[1] = test system: mouse apolipoprotein B mRNA; assay: Inhibition of mouse apolipoprotein B mRNA levels in primary mouse hepatocytes, real-time PCR; format: cell-based
Summary of the method: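 Primary CD-1 mouse hepatocytes transfected at 80% confluency with oligonucleotide plus 3.75 μg/mL LIPOFECTIN for 4-7 h, harvested 16-24 h after treatment. ApoB mRNA measured by real-time quantitative PCR against a standard curve of untreated-control mRNA, giving percent inhibition; GAPDH primers/probe also used.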

[2] = test system: apolipoprotein B protein; assay: Apolipoprotein B protein in primary Cynomolgous monkey hepatocytes, immunoblot; format: cell-based
Method: Additionally, protein was isolated from oligonucleotide-treated primary Cynomolgous monkey hepatocytes and subjected to immunoblot analysis to further assess apolipoprotein B protein expression. Immunoblotting was performed as described herein, using an antibody to human apolipoprotein B protein (US Biologicals, Swampscott, Mass.).

| Substance | % INHIB ([1]; Table 3, 150 nM, averages from two experiments) [%] | Percent Inhibition 50 nM ([1]; Table 4, 50 nM) [%] | Percent Inhibition 150 nM ([1]; Table 4, 150 nM) [%] | Percent Inhibition 300 nM ([1]; Table 4, 300 nM) [%] | apolipoprotein B expression (immunoblot) [2] |
| --- | --- | --- | --- | --- | --- |
| 147764 (eG*eT*e[5mC]*e[5mC]*e[5mC]*dT*dG*dA*dA*dG*dA*dT*dG*dT*d[5mC]*eA*eA*eT*eG*e[5mC]) [compound 147764] | 97 | 48 | 84 | 90 | – |
| ISIS 301012: SEQ ID NO: 247, antisense oligonucleotide targeted to human apolipoprotein B (antisense GCCTCAGTCTGCTTCGCACC; chemistry not given here) | – | – | – | – | substantial reduction |
